Results published in US20060058307A1, “Combination of an atp-competitive inhibitor of bcr/abl kinase activity and a tyrphostin analog” (priority 2001, published 2006).
Where two headings read alike, the source gives them in different places.

Legend:
[1] = animal testing, in vivo; unpublished observations of Stinson, Narayanan and Sausville; adaphostin compared with AG957; cited from earlier work
p210^bcr/abl = details: immune complex kinase assays; cited from earlier work
K562 cells [2] = assay: Morphologic changes associated with apoptosis (Hoechst 33258 staining) in K562 cells; assay type: cell-based, human; details: 24 h
Protocol: For morphological analysis, cells are fixed in 3:1 (v:v) methanol:acetic acid, stained with 1 μg/ml Hoechst 33258 in 50% (v:v) glycerol and examined under epi-illumination using a Zeiss Axioplan microscope. Two hundred to 300 cells/sample are scored for apoptotic changes (peripheral chromatin condensed or nuclear fragmentation) as described in Svingen et al., Clin. Cancer Res. 6, 237-49 (2000).
Under (c) in Table (A), K562 cells are incubated with the concentration indicated in the subsequent table in the presence of diluent or 10 μmol/l STI 571, fixed, and examined for apoptotic morphological changes.

K562 cells [3] = assay: Clonogenic assay (colony formation in 0.3% agar) of K562 cells; assay type: cell-based, human; details: 24 h
Protocol: At the completion of the incubation, cells are washed, plated in 0.3% agar and incubated for 10-14 days before colony formation is assessed. For results see under (a) in Table (A). […] At the completion of the incubation, colony formation ability is assessed as described in the last paragraph.

CML CFU-G = assay: Granulocyte colony formation of circulating mononuclear cells from CML patients (CFU-G / CFU-GM); assay type: cell-based, human; details: for Number of colonies (% of control): (d) Pt. #30 CFU-GM, 24 h; for IC50: Homo sapiens, CFU-GM, linear regression
Protocol: Clinical samples are studied under the aegis of a protocol approved by the Institutional Review Board of the Mayo Clinic in accordance with the policies of the US Department of Health and Human Services. […] CML CFU-G, 10 mL of peripheral blood is drawn from normal volunteers and consenting patients with previously untreated chronic phase CML using EDTA as an anticoagulant. […] At the completion of the incubation, samples are sedimented at 200×g for 10 min, resuspended at a concentration of 1×10^6/ml in medium C containing 50 ng/mL G-CSF, plated in 0.3% agar, and incubated for 7-8 d. Colonies containing […] are counted on an inverted phase contrast microscope.

[4] = compared with AG957; Svingen et al.; cited from earlier work

Structure (SMILES): COC(=O)c1ccc(NCc2cc(O)ccc2O)cc1 [AG957]
- serum half-life [1]: very short
- p210^bcr/abl activity (p210^bcr/abl): inhibit

Structure (SMILES): Cc1ccc(NC(=O)c2ccc(CN3CCN(C)CC3)cc2)cc1Nc1nccc(-c2cccnc2)n1 [STI571, N-{5-[4-(4-methyl-piperazino-methyl)-benzoylamido]-2-methylphenyl}-4-(3-pyridyl)-2-pyrimidine-amine]
- Apoptosis (% of total cells) (K562 cells [2]; (c) STI571 10 μmol/l, adaphostin 0): 12.9 % of total cells

Structure (SMILES): O=C(OC12CC3CC(CC(C3)C1)C2)c1ccc(NCc2cc(O)ccc2O)cc1 [Adaphostin, 4-{[(2,5-dihydroxyphenyl)methyl]amino}-benzoic acid adamantyl ester]
- Number of colonies (% of control) (K562 cells [3]; (a) adaphostin 2.5 μmol/l without STI571): 56 ± 4 % of control
- Number of colonies (% of control) (K562 cells [3]; (a) adaphostin 5.1 μmol/l without STI571): 46 ± 4 % of control
- Number of colonies (% of control) (K562 cells [3]; (a) adaphostin 7.7 μmol/l without STI571): 27 ± 4 % of control
- Number of colonies (% of control) (K562 cells [3]; (a) adaphostin 10.2 μmol/l without STI571): 10 ± 1 % of control
- Number of colonies (% of control) (K562 cells [3]; (b) adaphostin 5.2 μmol/l, STI571 0): 35 ± 3 % of control
- Apoptosis (% of total cells) (K562 cells [2]; (c) adaphostin 0.62 μmol/l without STI571): 2.1 % of total cells
- Apoptosis (% of total cells) (K562 cells [2]; (c) adaphostin 1.25 μmol/l without STI571): 10.9 % of total cells
- Apoptosis (% of total cells) (K562 cells [2]; (c) adaphostin 2.50 μmol/l without STI571): 41.8 % of total cells
- Apoptosis (% of total cells) (K562 cells [2]; (c) adaphostin 3.75 μmol/l without STI571): 62.8 % of total cells
- Apoptosis (% of total cells) (K562 cells [2]; (c) adaphostin 5.00 μmol/l without STI571): 84.1 % of total cells
- Number of colonies (% of control) (CML CFU-G; adaphostin 3.2 μmol/l without STI571): 93 ± 1.9 % of control
- Number of colonies (% of control) (CML CFU-G; adaphostin 6.4 μmol/l without STI571): 71 ± 2.2 % of control
- Number of colonies (% of control) (CML CFU-G; adaphostin 12.7 μmol/l without STI571): 55 ± 2.5 % of control
- Number of colonies (% of control) (CML CFU-G; adaphostin 15.9 μmol/l without STI571): 40 ± 1.2 % of control
- Number of colonies (% of control) (CML CFU-G; adaphostin 19.1 μmol/l without STI571): 18 ± 0.7 % of control
- IC50 (CML CFU-G; read-out: IC50 for Adaphostin in presence of 20 μmol/l STI571, CFU-GM, patient number 28): 5 µM
- IC50 (CML CFU-G; read-out: IC50 for Adaphostin in presence of 20 μmol/l STI571, CFU-GM, patient number 29): 14 µM
- IC50 (CML CFU-G; read-out: IC50 for Adaphostin in presence of 20 μmol/l STI571, CFU-GM, patient number 30): 8.5 µM
- IC50 (CML CFU-G; read-out: IC50 for Adaphostin in presence of 20 μmol/l STI571, CFU-GM, patient number 31): 10 µM
- IC50 (CML CFU-G; read-out: IC50 for Adaphostin in presence of 20 μmol/l STI571, CFU-GM, patient number 33): 16 µM
- IC50 (CML CFU-G; read-out: IC50 for Adaphostin in presence of 20 μmol/l STI571, CFU-GM, patient number 34): 3.5 µM
- IC50 (CML CFU-G; read-out: IC50 for Adaphostin without STI571, CFU-GM, patient number 28): 13 µM
- IC50 (CML CFU-G; read-out: IC50 for Adaphostin without STI571, CFU-GM, patient number 29): > 20 µM
- IC50 (CML CFU-G; read-out: IC50 for Adaphostin without STI571, CFU-GM, patient number 30): 13.5 µM
- IC50 (CML CFU-G; read-out: IC50 for Adaphostin without STI571, CFU-GM, patient number 31): 8.5 µM
- IC50 (CML CFU-G; read-out: IC50 for Adaphostin without STI571, CFU-GM, patient number 33): 23 µM
- IC50 (CML CFU-G; read-out: IC50 for Adaphostin without STI571, CFU-GM, patient number 34): 11 µM
- serum half-life [1]: longer
- potency in vitro [4]: higher
